Assay results taken from patent US6506772B1, “Substituted [1,2,4]triazolo[1,5a]pyridine derivatives with activity as adenosine receptor ligands” (Hoffmann-La Roche Inc., priority 2000, dated 2003).

How the values were obtained:
[1] = target: T1, human adenosine A2A receptor (Homo sapiens, UniProt P29274); test: Human adenosine A2A receptor [3H]-SCH-58261 binding assay; settings: for Ki: affinity to human adenosine A2A receptor, read-out: Ki HA2A; for selectivity (A1/A2a): calculated ratio of the affinity to the HA1 receptor to the HA2a receptor
T1 construct: expressed in transfected cells; host or cells: CHO cells, Semliki Forest virus expression system; membrane preparation
T1 sequence (P29274 whole entry): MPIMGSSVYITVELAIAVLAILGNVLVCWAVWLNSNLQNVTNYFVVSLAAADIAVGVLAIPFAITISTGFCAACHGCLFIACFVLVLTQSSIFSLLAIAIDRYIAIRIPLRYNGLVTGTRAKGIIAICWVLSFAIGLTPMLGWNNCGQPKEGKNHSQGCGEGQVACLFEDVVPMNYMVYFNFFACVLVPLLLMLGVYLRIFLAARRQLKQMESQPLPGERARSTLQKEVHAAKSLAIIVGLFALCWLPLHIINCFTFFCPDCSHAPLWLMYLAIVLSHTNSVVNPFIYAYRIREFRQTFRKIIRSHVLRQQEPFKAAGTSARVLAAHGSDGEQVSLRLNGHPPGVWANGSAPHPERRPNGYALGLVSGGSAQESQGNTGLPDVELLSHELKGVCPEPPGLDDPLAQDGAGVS
Protocol: Human Adenosine A2A Receptor
The human adenosine A2A receptor was recombinantly expressed in chinese hamster ovary (CHO) cells using the semliki forest virus expression system. Cells were harvested, washed twice by centrifugation, homogenized and again washed by centrifugation. The final washed membrane pellet was suspended in a Tris (50 mM) buffer containing 120 mM NaCl, 5 mM KCl, 2 mM CaCl2 and 10 MM MgCl2 (pH 7.4) (buffer A). […] Compounds were tested at 10 concentrations from 10 μM-0.3 nM. All assays were conducted in duplicate and repeated at least two times. Assay plates were incubated for 1 hour at room temperature before centrifugation and then bound ligand determined using a Packard Topcount scintillation counter. IC50 values were calculated using a non-linear curve fitting program and Ki values calculated using the Cheng-Prussoff equation.

HA1 adenosine receptor = target: T2, HA1 adenosine receptor (Homo sapiens, UniProt P30542); test: Human adenosine A1 receptor affinity (Ki hA1); format: binding; settings: affinity to human adenosine A1 receptor
T2 sequence (P30542 1-326): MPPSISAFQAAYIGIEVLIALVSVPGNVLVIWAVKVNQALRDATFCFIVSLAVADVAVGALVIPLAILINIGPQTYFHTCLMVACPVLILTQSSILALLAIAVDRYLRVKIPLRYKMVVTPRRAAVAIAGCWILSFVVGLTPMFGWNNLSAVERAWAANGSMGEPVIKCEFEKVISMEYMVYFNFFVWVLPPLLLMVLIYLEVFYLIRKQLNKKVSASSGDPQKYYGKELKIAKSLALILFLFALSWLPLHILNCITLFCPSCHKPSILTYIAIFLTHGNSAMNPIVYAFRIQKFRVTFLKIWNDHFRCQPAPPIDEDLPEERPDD

| SMILES | Ki [1] | selectivity (A1/A2a) [1] | Ki (HA1 adenosine receptor) |
| --- | --- | --- | --- |
| Nc1cc(C(=O)NCc2ccccc2Cl)cc2nc(-c3ccccn3)nn12 [Example 39, 5-Amino-2-pyridin-2-yl-[1,2,4]triazolo[1,5-a]pyridine-7-carboxylic acid 2-chloro-benzylamide] | 16.8 nM | 4.2 | 69.8 nM |
| Nc1cc(C(=O)NCCc2ccccc2F)cc2nc(-c3ccccn3)nn12 [Example 40, 5-Amino-2-pyridin-2-yl-[1,2,4]triazolo[1,5-a]pyridine-7-carboxylic acid [2-(2-fluoro-phenyl)-ethyl]-amide] | 49.9 nM | 4.1 | 204 nM |
| COc1ccccc1CNC(=O)c1cc(N)n2nc(-c3ccccn3)nc2c1 [Example 41, 5-Amino-2-pyridin-2-yl-[1,2,4]triazolo[1,5-a]pyridine-7-carboxylic acid 2-methoxy-benzylamide] | 21.8 nM | 4.0 | 88.1 nM |
| Nc1cc(C(=O)NCc2ccc(F)cc2)cc2nc(-c3ccccn3)nn12 [Example 43, 5-Amino-2-pyridin-2-yl-[1,2,4]triazolo[1,5-a]pyridine-7-carboxylic acid 4-fluoro-benzylamide] | 87.7 nM | 2.3 | 203 nM |
| CC(NC(=O)c1cc(N)n2nc(-c3ccccn3)nc2c1)c1ccccc1 (stereo not drawn) [Example 44, 5-Amino-2-pyridin-2-yl-[1,2,4]triazolo[1,5-a]pyridine-7-carboxylic acid (1-phenyl-ethyl)-amide] | 44.5 nM | 2.7 | 120 nM |
| COc1ccccc1CCNC(=O)c1cc(N)n2nc(-c3ccccn3)nc2c1 [Example 45, 5-Amino-2-pyridin-2-yl-[1,2,4]triazolo[1,5-a]pyridine-7-carboxylic acid [2-(2-methoxy-phenyl)-ethyl]-amide] | 53.5 nM | 2.4 | 128 nM |
| Nc1cc(C(=O)NCc2ccccc2)cc2nc(-c3ccccn3)nn12 [Example 46, 5-Amino-2-pyridin-2-yl-[1,2,4]triazolo[1,5-a]pyridine-7-carboxylic acid benzylamide] | 61.1 nM | 3.0 | 184 nM |
| CCCCCCNC(=O)c1cc(N)n2nc(-c3ccccn3)nc2c1 [Example 47, 5-Amino-2-pyridin-2-yl-[1,2,4]triazolo[1,5-a]pyridine-7-carboxylic acid hexylamide] | 37.5 nM | 8.4 | 316 nM |
| Nc1cc(C(=O)NC2CCCCC2)cc2nc(-c3ccccn3)nn12 [Example 48, 5-Amino-2-pyridin-2-yl-[1,2,4]triazolo[1,5-a]pyridine-7-carboxylic acid cyclohexylamide] | 62.1 nM | 5.9 | 366 nM |
| CCCCNC(=O)c1cc(N)n2nc(-c3ccccn3)nc2c1 [Example 49, 5-Amino-2-pyridin-2-yl-[1,2,4]triazolo[1,5-a]pyridine-7-carboxylic acid butylamide] | 34.3 nM | 7.1 | 242 nM |
| Nc1cc(C(=O)NCCc2ccccc2Cl)cc2nc(-c3ccccn3)nn12 [Example 50, 5-Amino-2-pyridin-2-yl-[1,2,4]triazolo[1,5-a]pyridine-7-carboxylic acid [2-(2-chloro-phenyl)-ethyl]-amide] | 119 nM | 1.0 | 123 nM |
| COc1ccc(-c2nc3cc(C(=O)N(Cc4ccccc4)Cc4ccccc4)cc(N)n3n2)s1 [Example 51, 5-Amino-2-(5-methoxy-thiophen-2-yl)-[1,2,4]triazolo[1,5-a]pyridine-7-carboxylic acid dibenzylamide] | 22.2 nM | 5.8 | 129 nM |
| COc1ccc(-c2nc3cc(C(=O)NCc4ccccc4Br)cc(N)n3n2)s1 [Example 52, 5-Amino-2-(5-methoxy-thiophen-2-yl)-[1,2,4]triazolo[1,5-a]pyridine-7-carboxylic acid 2-bromo-benzylamide] | 108 nM | 0.8 | 85.7 nM |
| COc1ccc(-c2nc3cc(C(=O)N(Cc4ccccc4)C(C)C)cc(N)n3n2)s1 [Example 55, 5-Amino-2-(5-methoxy-thiophen-2-yl)-[1,2,4]triazolo[1,5-a]pyridine-7-carboxylic acid benzyl-isopropyl-amide] | 28.3 nM | 2.7 | 76.4 nM |
| COc1ccc(-c2nc3cc(C(=O)NCc4ccccc4Cl)cc(N)n3n2)s1 [Example 56, 5-Amino-2-(5-methoxy-thiophen-2-yl)-[1,2,4]triazolo[1,5-a]pyridine-7-carboxylic acid 2-chloro-benzylamide] | 82 nM | 1.1 | 86.3 nM |
| COc1ccc(-c2nc3cc(C(=O)NCc4ccccc4OC)cc(N)n3n2)s1 [Example 58, 5-Amino-2-(5-methoxy-thiophen-2-yl)-[1,2,4]triazolo[1,5-a]pyridine-7-carboxylic acid 2-methoxy-benzylamide] | 71.9 nM | 0.7 | 52.7 nM |
| CCN(Cc1ccccc1)C(=O)c1cc(N)n2nc(-c3ccc(OC)s3)nc2c1 [Example 59, 5-Amino-2-(5-methoxy-thiophen-2-yl)-[1,2,4]triazolo[1,5-a]pyridine-7-carboxylic acid benzyl-ethyl-amide] | 42.9 nM | 2.5 | 106 nM |
| COc1ccc(-c2nc3cc(C(=O)NCc4ccccc4)cc(N)n3n2)s1 [Example 62, 5-Amino-2-(5-methoxy-thiophen-2-yl)-[1,2,4]triazolo[1,5-a]pyridine-7-carboxylic acid benzylamide] | 176 nM | 0.6 | 113 nM |
| CCCCCCNC(=O)c1cc(N)n2nc(-c3ccc(OC)s3)nc2c1 [Example 63, 5-Amino-2-(5-methoxy-thiophen-2-yl)-[1,2,4]triazolo[1,5-a]pyridine-7-carboxylic acid hexylamide] | 181 nM | 1.4 | 247 nM |
| COc1ccc(-c2nc3cc(C(=O)NC4CCCCC4)cc(N)n3n2)s1 [Example 64, 5-Amino-2-(5-methoxy-thiophen-2-yl)-[1,2,4]triazolo[1,5-a]pyridine-7-carboxylic acid cyclohexylamide] | 227 nM | 1.0 | 223 nM |
| CCN(C(=O)c1cc(N)n2nc(-c3ccc(OC)s3)nc2c1)C(C)C [Example 65, 5-Amino-2-(5-methoxy-thiophen-2-yl)-[1,2,4]triazolo[1,5-a]pyridine-7-carboxylic acid ethyl-isopropyl-amide] | 51.5 nM | 4.1 | 211 nM |
| COc1ccc(-c2nc3cc(C(=O)N4CCCCC4)cc(N)n3n2)s1 [Example 66, [5-Amino-2-(5-methoxy-thiophen-2-yl)-[1,2,4]triazolo[1,5-a]pyridin-7-yl]-piperidin-1-yl-methanone] | 174 nM | 3.6 | 623 nM |
| CCCCNC(=O)c1cc(N)n2nc(-c3ccc(OC)s3)nc2c1 [Example 67, 5-Amino-2-(5-methoxy-thiophen-2-yl)-[1,2,4]triazolo[1,5-a]pyridine-7-carboxylic acid butylamide] | 99.1 nM | 1.4 | 136 nM |
| CCN(CC)C(=O)c1cc(N)n2nc(-c3ccc(OC)s3)nc2c1 [Example 68, 5-Amino-2-(5-methoxy-thiophen-2-yl)-[1,2,4]triazolo[1,5-a]pyridine-7-carboxylic acid diethylamide] | 171 nM | 4.2 | 717 nM |
| COc1ccc(-c2nc3cc(C(=O)NC4CCC4)cc(N)n3n2)s1 [Example 70, 5-Amino-2-(5-methoxy-thiophen-2-yl)-[1,2,4]triazolo[1,5-a]pyridine-7-carboxylic acid cyclobutylamide] | 113 nM | 1.3 | 148 nM |
| CCCNC(=O)c1cc(N)n2nc(-c3ccc(OC)s3)nc2c1 [Example 71, 5-Amino-2-(5-methoxy-thiophen-2-yl)-[1,2,4]triazolo[1,5-a]pyridine-7-carboxylic acid propylamide] | 64.9 nM | 2.8 | 180 nM |
| CCCCN(Cc1ccccc1)C(=O)c1cc(N)n2nc(-c3ccc(OC)s3)nc2c1 [Example 73, 5-Amino-2-(5-methoxy-thiophen-2-yl)-[1,2,4]triazolo[1,5-a]pyridine-7-carboxylic acid benzyl-butyl-amide] | 37.4 nM | 3.6 | 136 nM |
| COc1ccc(-c2nc3cc(C(=O)N(CCc4ccccc4)Cc4ccccc4)cc(N)n3n2)s1 [Example 75, 5-Amino-2-(5-methoxy-thiophen-2-yl)-[1,2,4]triazolo[1,5-a]pyridine-7-carboxylic acid benzyl-phenethyl-amide] | 26.6 nM | 0.6 | 15.8 nM |
